Test results: US4814329A, “Antihyperlipoproteinemic 5-substituted sulfur-containing benzimidazole derivatives” (Richter Gedeon Vegyeszeti Gyar R.T., priority 1985, dated 1989)
pIC50: −log10 of the molar value. Counter-ions that a name gives are not always drawn. Like-named read-outs stand apart in the source and are kept apart here.

Key:
[1] = test system: rats fed with cholesterol; assay: in vivo antihyperlipoproteinemic test, rats fed cholesterol fodder for 7 days (Table 1); parameters: species or system Whistar hannover male rats; conditions: rat; for change in vivo at 30 mg/kg / change in vivo at 100 mg/kg: po; for change in vivo at 30 mg/kg: 30.0 mg/kg p.o.; for change in vivo at 100 mg/kg: 100.0 mg/kg p.o.
Description: (§1) Whistar hannover male rats weighing 140-160 g were fed for 7 days with a rat fodder supplemented with 1.5% of cholesterol, 0.5% of sodium cholate and 5% of solid fat. (Schurr, P. E.; Schultz, J. R., Day, D. E.; Atherosclerosis Drug Discovery Ed.: C. E. Day, Plenum, New York 215 (1976) and Acta Pharm. Hung., 49, 182. (1979) During this time the total cholesterol level of the serum increased with 200-250% compared to the normal level, while the amount of the HDL chloesterol diminished by 45-50%. Groups consisting of six animals were formed. The compounds of the invention were administered orally starting on the fourth day of the addition of the cholesterol fodder and it was continued by the end of the experiments, by the seventh day, in one or two doses. Then after a 18 hour starving the animals were bled to death under etheric narcosis on the 8th day. The blood samples were centrifuged and the serum total cholesterol and the HDL cholesterol were determined by Backmann enzymatic test, while the triglyceride concentration of the serum was determined by Van Handel's method (J. Lab.: Clin. Med. 41, 486 (1953). The amount of the LDL+VLDL was measured by manganese precipitation turbidimetrically (Schurr, P. E., Schulz, J. R., Day, C. E.: Atherosclerosis Drug Discovery Ed.: C. E. Day, Plenum Press, New York 215 (1976). The antiaggreagtion activity was measured in vitro on human plasm being rich in thrombocytes by a Chrono-log aggregometer. The aggregation was induced by ADP, adrenaline, collagen and arachidonic acid. […]. The lipidperoxidation was induced by N-ethyl-alenicimide (Arzneimittel-Forschung 29, 981 (1979).

[2] = test system: rats with the cholesterol diet; assay: in vivo test in rats with the cholesterol diet, 10 day treatments (Table 2); conditions: rat, 10 day treatment, 100.0 mg/kg p.o.
Experimental: as §1, with “Whistar hannover male rats weighing 140-160 g were fed for 7 days with a rat fodder supplemented with 1.5% of cholesterol, 0.5% of sodium cholate and 5% of solid fat.” left out, “The compounds of the invention were administered orally starting on the fourth day of the addition of the cholesterol fodder and it was continued by the end of the experiments, by the seventh day, in one or two doses.” left out
The affect of compound no. 0202479 to the rats with the
cholesterol diet in 10 day treatments

[3] = test system: platelet aggregation; conditions: cited from earlier work
[4] = read-out: HDL cholesterol % change
[5] = read-out: serum cholesterol change
[6] = serum, read-out: triglyceride change

Row | SMILES | change in vivo at 30 mg/kg [1, 4] [%] | change in vivo at 30 mg/kg ([1]; read-out: LDL + VLDL % change) [%] | change in vivo at 30 mg/kg [1, 5] [%] | change in vivo at 100 mg/kg [1, 4] [%] | change in vivo at 100 mg/kg ([1]; read-out: LDL + VLDL % change) [%] | change in vivo at 100 mg/kg [1, 5] [%] | change in vivo at 30 mg/kg [1, 6] [%] | change in vivo at 100 mg/kg [1, 6] [%] | decrease of the total serum cholesterol level ([1]; 100 mg/kg) | increase of HDL(-cholesterol) ([1]; 100 mg/kg) [%] | other results
1 | CC(=O)CSc1nc2ccc(Cc3ccccc3)cc2[nH]1 [compound 0202002, 1-((5-benzyl-2-benzimidazolyl)thio)-2-propanone] | -16.9 | -0.38 | -22 | -16.9 | -55.8 | -68 | 27.8 | -29.4 |  |  | 
2 | CCOC(=O)C(C)(C)Oc1ccc(Cl)cc1 [Clofibrate, 2-(4-chlorophenoxy)isobutyric ethyl ester, reference compound] |  |  |  | -20 | -11.2 | -24.7 |  | -20 |  |  | Serum cholesterol percentile change [2]: -23.0 percentile change; HDL cholesterol percentile change ([2]; ** P 0.01): -7.4 percentile change; LDL + VLDL percentile change ([2]; ** P 0.01): -37.9 percentile change; triglyceride percentile change ([2]; ** P 0.01): -24.5 percentile change; pIC50 ([3]; ADP induced aggregation, read-out: medium inhibitory concentration, ADP): 4.00; pIC50 ([3]; adrenaline induced aggregation, read-out: medium inhibitory concentration, Adrenaline): 3.15; pIC50 ([3]; arachidonic acid induced aggregation, read-out: medium inhibitory concentration, Arachidonic acid): 2.30; pIC50 ([3]; collagen induced aggregation, read-out: medium inhibitory concentration, Collagene): 2.77; inhibition of aggregation induced by arachidonic acid, in words ([3]; compared with compound at 250 μM): ineffective
3 | OCCCSc1nc2ccc(Cc3ccccc3)cc2[nH]1 [compound 0202367, 5-Benzyl-2-(3-hydroxypropylthio)-benzimidazole] | 47.1 | -45.2 | -37.4 | 26 | -50.7 | -42.6 | -19 | -16.1 |  |  | 
4 | O=C(O)CC(Sc1nc2ccc(Cc3ccccc3)cc2[nH]1)C(=O)O (stereo not drawn) [compound 0200131, S-(5-Benzyl-2-benzimidazolyl)-2-thio-succinic acid] | 10 | -17.5 | -17.4 | 57 | -5.9 | -16.9 | -18.8 | -25.4 |  |  | 
5 | CC(=O)CCn1c(=S)[nH]c2cc(Cc3ccccc3)ccc21 [compound 0200427, 1-(5-Benzyl-2-thioxo-1-benzimidazolyl)-3-butanone] | -17.7 | -58.2 | -45.5 | -12.1 | -54.4 | -51.7 | -63.5 | -67.2 | 51.7% |  | HDL level, in words ([1]; 100 mg/kg): decreased the HDL level, though in smaller extent; decrease of the LDL+VLDL level ([1]; 100 mg/kg): 54.4%; decrease of the serum triglyceride ([1]; 100 mg/kg): 67.2%; overall lipid/lipoprotein activity, in words ([1]; 100 mg/kg): Especially great serum lipid decreasing activity
6 | O=C(O)CC(Sc1nc2ccc(C(=O)c3ccccc3)cc2[nH]1)C(=O)O (stereo not drawn) [compound 0200086, S-(5-Benzoyl-2-benzimidazolyl)-2-thio-succinic acid] | -35 | -22.1 | -26 | 19.4 | -24.8 | -35.4 | -24.9 | -27.2 |  |  | 
7 | Br.C=CCSc1nc2ccc(Cc3ccccc3)cc2[nH]1 [compound 0202154, 5-Benzyl-2-(2-propenylthio)-benzimidazole hydrobromide] | 27 | -38.1 | -34.5 | 71.3 | -57.5 | -49.3 | -30 | -25.3 | 49.3% | 71.3 | decrease of the LDL+VLDL level ([1]; 100 mg/kg): 57.5%; decrease of the serum triglyceride ([1]; 100 mg/kg): 25.3%; overall lipid/lipoprotein activity, in words ([1]; 100 mg/kg): very effective
8 | CCOC(=O)CC(=O)CSc1nc2ccc(Cc3ccccc3)cc2[nH]1 [compound 0203232, 4-[(5-Benzyl-2-benzimidazolyl)thio]acetoacetic acid ethylester hydrochloride] | 6.8 | -27.6 | -32.1 | 6.8 | -45.9 | -48.6 | 29.3 | -18.3 |  |  | 
9 | CC(=O)CCn1c(=S)n(CCC(C)=O)c2cc(Cc3ccccc3)ccc21 [compound 0200058, 1,3-bis(3-Oxo-butyl)-5-benzyl-2-thioxo-benzimidazole] | 30 | -19.4 | -14 | 44.9 | -9.4 | -10.6 | 1 | 12.8 |  | 45 | total cholesterol of the serum, in words ([1]; 100 mg/kg): smaller decrease of the level of the total cholesterol of the serum
10 | OCCSc1nc2ccc(Cc3ccccc3)cc2[nH]1 [compound 0202377, 5-Benzyl-2-(2-hydroxyethylthio)-benzimidazole] | -13.5 | 1 | -36.5 | 61.2 | -14.5 | -52.4 | 58 | 116 | 52.4 | 61.2 | LDL+VLDL level, in words ([1]; 100 mg/kg): decreased is smaller extent
11 | C#CCSc1nc2ccc(Cc3ccccc3)cc2[nH]1 [compound 0202647, 5-Benzyl-2-(2-propinylthio)-benzimidazole] |  |  |  |  |  |  |  |  | 34.5 | 49 | decrease of the LDL+VLDL level ([1]; 100 mg/kg): 41.5; overall lipid/lipoprotein activity, in words ([1]; 100 mg/kg): especially excellent activity
